From patent US20210246128A1, “BICYCLE TOPOISOMERASE I INHIBITING COMPOUNDS, PROCESS FOR PREPARATION AND USE THEREOF” (Council of Scientific & Industrial Research, priority 2018, published 2021)
Read-outs that look alike come from different tables or passages of the source.

Tests used:
[1] = test system: noncancerous human embryonic kidney (HEK293) cells; assay: Cytotoxicity assay, HEK293; settings: read-out: IC50 cytotoxicity HEK293; HEK293 (noncancerous)
TDP1−/− cells = assay: Cytotoxicity assay, TDP1−/−; settings: read-out: IC50 cytotoxicity TDP1−/−
Experimental: (§1) The percent inhibition of viability for each concentration of compound was calculated with respect to the control and IC50 (μM) values were estimated. Each point corresponds to the mean±S.D of at least three experiments in duplicates. Error bars represent SD (n=3).

[2] = Solubility assay (pH 7.4 pION buffer, UV); assay type: physicochemical; settings: pH 7.4 buffer, 18 hours incubation
Experimental: 5 μL of 20 mM DMSO stock from the stock plate was added to the reaction deep well plate containing 495 μL of pH 7.4 pION buffer (including DMSO control) respectively and the samples were mixed and incubated for 18 hours. The plate was sealed well during the incubation process. The DMSO content in the sample was <1.0%. The concentration in deep well plates was 200 μM. 4 μL of 20 mM stock (including DMSO control) was added to 996 μL of acetonitrile to prepare the working stock plate. 75 μL of working stock was added to 75 μL of blank buffer and read on spectrophotometer as reference plate at 240 nm. At the end of the incubation period, 100 μL of sample from storage plate was vacuum filtered using a filter plate. This step wets the filters and the filtrate was discarded. Another 200 μL of the sample from deep well plate was vacuum filtered in to a new filter collection plate. 75 μL of the filtrate from the filter collection plate was transferred to a UV sample plate. 75 μL of acetonitrile was added to this UV plate. The solution was mixed and the spectrum was read using the UV spectrophotometer at 240 nm. Plates were read on spectramax using SoftMax Pro software version 5.3.

MCF7 cells = assay: γH2AX assay (immunofluorescence confocal microscopy); assay type: cell-based, human; settings: after washing out from media
Experimental: Quantification of comparative ability of CPT and 18 to form DSBs was quantified after 3 hours and 5 hours by measuring γH2AX intensity per nucleus after treatment and after the removal of 18 or CPT was obtained from immunofluorescence confocal microscopy. […] But CPT-induced γH2AX have a short half-life. […] (T. Furuta. J. Biol. Chem. 2003, 278, 20303-20312).

Plasma stability assay = assay type: in vitro ADME; settings: pH 7.4, 37° C., 1 μM
Experimental: The stock solution of 10 mM of test compound in DMSO was prepared and stored at 4° C. 25 μM stock of test compound was prepared in acetonitrile: water by diluting from 10 mM stock (i.e. 2.5 μL of 10 mM stock solution was added to 997.5 μL of acetonitrile: water (50:50). The frozen plasma was thawed at room temperature and centrifuged at 1400×RCF (relative centrifugal force) 4° C., for 15 minutes. Approximately 90% of the clear supernatant fraction was transferred to a separate tube and was used for the assay.
For 0 min samples, plasma was heat inactivated at 56° C. for 45 min. To 72 μL of heat inactivated plasma, 3 μL of 25 μM test compound was added. A 25 μL aliquot of the mixture was taken and crashed with 200 μL of acetonitrile containing internal standard and further processed along with other time points. For other time point samples, final working stock of 1 μM was prepared by diluting in plasma (i.e. 8 μL of 25 μM acetonitrile:water stock was added to 192 μL of plasma). 200 μL of plasma containing the test compound was incubated for 2 hrs at 37° C. in shaker water bath with gentle shaking. 25 μL aliquot of sample at 0, 15, 30, 60 and 120 min was precipitated immediately with 200 μL of acetonitrile containing internal standard and centrifuged at 4000×RCF, 4° C. for 20 minutes. 150 μL of supernatant was diluted with 150 μL of water and analyzed on LC-MS/MS.

Caco-2 cell monolayer = settings: cited from earlier work
TDP1+/+ MEFs = assay: Cytotoxicity assay, TDP1+/+ MEFs; assay type: cell-based
Experimental: as §1

[3] = Cytotoxicity assay, HEK293; settings: human
[4] = test system: human colon carcinoma cell lines (HCT116); assay: Cytotoxicity assay, HCT116; settings: HCT-116, read-out: IC50 cytotoxicity HCT116
[5] = Lipophilicity assay (octanol/buffer Log D); settings: octanol / sodium phosphate buffer pH 7.4
[6] = Caco-2 permeability (21 day culture of Caco-2 cell monolayer); assay type: in vitro ADME; settings: human; for recovery at 120 min, 10 μM: Caco-2, pH 7.4, Caco-2
Experimental: 5 mL of 100 mM sodium pyruvate, 5 mL of 10× non-essential amino acids, 5 mL of penstrep were added to 100 mL of heat inactivated foetal bovine serum to 385 mL of DMEM aseptically and mixed thoroughly. One vial of Hank's balanced salt (Sigma-H1387) was dissolved in 900 mL of milli Q water; adjusted the pH to 7.4 and made up the volume to 1000 mL with the same. The solution was filter sterilized and stored at 4° C. Stock solution of test compound (10 mM) was prepared in DMSO. 10 mM stock was diluted with HBSS Buffer to a final concentration of 10 μM.
250 μL of DMEM was added to the basal compartment of 96 well multi-screen Caco-2 plate and seeded 12000 cells/well (0.16×10^6 cells/ml) in all the apical wells required and one well with only media as blank without cells, placed the Caco-2 plate in CO2 incubator at 37° C. for proliferation of cells.
On the day of assay, medium was removed and washed twice with HBSS Buffer and incubated with HBSS buffer for 30 min in an incubator and wells with TEER values >230 ohm·cm^2 were selected for the incubation. 75 μL of test compound was added to apical wells and 250 μL of HBSS buffer with 2% BSA was added to basal wells. 25 μL of basal samples was collected at 120 min and processed as stated below.
250 μL of test compound was added to basal wells and 75 μL of HBSS buffer with 2% BSA was added to apical wells. 25 μL of apical samples was collected at 120 min and processed as stated below.
Single point calibration curve in HBSS buffer with 2% BSA was used. Donor samples were diluted 1:1 with HBSS containing 2% BSA and receiver samples were diluted with 1.1 HBSS buffer and precipitated with 200 μL of acetonitrile containing internal standard and vortexed for 5 min @ 1000 rpm, centrifuged at 4000 rpm for 10 min. Finally 100 μL of supernatant was diluted with 200 μL of water and submitted for LC-MS/MS analysis.

calf thymus (CT) DNA = assay: Ethidium bromide (EtBr) displacement assay; assay type: binding; settings: 1 μM EtBr, 5 nM CT DNA, 0-200 μM compound
[7] = test system: human ovarian adenocarcinoma cell lines (NIH:OVCAR-3); assay: Cytotoxicity assay, NIH:OVCAR-3; settings: OVCAR-3, read-out: IC50 cytotoxicity NIH:OVCAR-3

Row | Compound | IC50 [1] [nM] | IC50 (TDP1−/− cells; TDP1−/−) [nM] | Avg. Solubility (μg/mL) at pH 7.4 [2] [μg/mL] | persistence of γH2AX foci / DSBs after removal of drug (MCF7 cells) | Mean % remaining at 2 hrs in human Plasma (Plasma stability assay) [%] | Papp Apical to Basal (Caco-2 cell monolayer) | Papp Basal to Apical (Caco-2 cell monolayer) | IC50 (TDP1+/+ MEFs) [nM] | IC50 [3] [nM] | IC50 [4] [nM] | IC50 (TDP1−/− cells) [nM] | Log D @ pH 7.40 Mean [5] | recovery at 120 min, 10 μM ([6]; read-out: A to B % Recovery) [%] | recovery at 120 min, 10 μM ([6]; read-out: B to A % Recovery) [%] | Papp A→B at 120 min, 10 μM ([6]; pH 7.4, Caco-2, 10 μM, 120 min, read-out: Papp Apical to Basal) [×10⁻⁶ cm/s] | Papp B→A at 120 min, 10 μM ([6]; pH 7.4, Caco-2, 10 μM, 120 min, read-out: Papp Basal to Apical) [×10⁻⁶ cm/s] | displacement of bound EtBr (DNA intercalation) (calf thymus (CT) DNA) | IC50 [7] [nM]
1 | CC[C@@]1(O)C(=O)OCc2c1cc1n(c2=O)Cc2cc3ccccc3nc2-1 [Camptothecin, reference compound] | 8750 ± 630 | 1570 ± 210 | 2.5 | faster disappearance of γH2AX foci | 15.70 | 10.5 10^−6 cm/sec | 35.8 10^−6 cm/sec | 2800 ± 470 | – | – | – | – | – | – | – | – | – | –
2 | COc1ccc(-c2ccc3ncc(-c4nnco4)c(NCCCn4ccnc4)c3c2)cc1 [Compound 18, N-(3-(1H-imidazol-1-yl)propyl)-6-(4-methoxyphenyl)-3-(1,3,4-oxadiazol-2-yl)quinolin-4-amine] | – | – | – | persistent and less reversible DNA double-strand breaks (DSBs) | 93.34 | – | – | – | 8340 | 2340 | 1020 | 2.48 | 33.2 | 44.2 | 7.42 | 11.6 | no displacement of fluorophore even at high concentration (200 μM) | 2350
